Assay in all cases: inhibition of tumour cell growth, NCI panel, 48 h
The subject of assay [1] is LOX IMVI melanoma.
For assay [2], the system named is SK-OV-3 ovarian.
Assay [3] has as its system SK-MEL-2 melanoma.
The test system of assay [4] is NCI/ADR-RES ovarian.
For assay [5], the system named is NCI-H522 lung.
In assay [6] the test system is OVCAR-5 ovarian.
Assay [7] deals with RPMI-8226 leukemia.
The subject of assay [8] is SW-620 colon.
Assay [9] has as its system MCF7 breast.
The test system of assay [10] is SR leukemia.

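Following 48 hours of exposure in 96-well plates, responses at five concentrations were used to interpolate endpoints linearly. GI50: concentration for 50% inhibition of growth. Definition used: TGI = concentration required for complete inhibition of growth.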

With `COc1ccccc1/C=N\N=C(N/N=C/c1ccccc1OC)N/N=C/c1ccccc1OC`, the GI50 is 3.33 µM in assay [1]; 2.68 µM in assay [2]; 5.51 µM in assay [3]; 3.12 µM in [4]; 4.55 µM in assay [5]; 4 µM in [6]. The GI50 was 2.96 µM in assay [7], 3.38 µM in assay [8], 3.02 µM in [9] and 3.16 µM in [10]. The TGI in assay [1] is 11.3 µM; in assay [2], 8.32 µM; in assay [3] it was greater than 100 µM; in assay [4], 10.5 µM; in assay [5], greater than 100 µM; in assay [6], greater than 100 µM. In addition, the TGI in [7] amounted to 12.3 µM; in [8], 13.6 µM; in [9], 23.5 µM; in assay [10], 12.5 µM.

With `C=CC(=O)N[C@H]1CCOC[C@H]1Nc1ncc2cc(-c3c(Cl)c(OC)cc(OC)c3Cl)ccc2n1`, the GI50 in assay [1] was 14.9 µM; in assay [2] it was 26.9 µM; in assay [3], 11.9 µM; in assay [4], 20.7 µM; in [5], 30.9 µM; in [6], 45.1 µM. For the same molecule, the GI50 in assay [7] was 9.04 µM; in assay [8] it was 27.5 µM; in [9], 5.65 µM; in assay [10], 10.6 µM. In addition, the TGI was 48.9 µM in assay [1]; greater than 100 µM in assay [2]; 31.7 µM in assay [3]; greater than 100 µM in assay [4]; greater than 100 µM in assay [5]; greater than 100 µM in assay [6]. Further, the TGI in assay [7] is 61.5 µM; in assay [8], greater than 100 µM; in assay [9] it was 51 µM; in assay [10] it was greater than 100 µM.

As to `O=C(O)c1cc2cc(OCc3ccccc3)c(OCc3ccccc3)cc2[nH]1`, the GI50 in assay [1] is 18.1 µM; in assay [2], 29.5 µM; in assay [3], 21.4 µM; in assay [4] it was 20.2 µM; in assay [5] it was 24 µM; in assay [6], 29.1 µM. Further, the GI50 in assay [7] was 23 µM; in assay [8] it was 21.8 µM; in assay [9], 21.8 µM; in [10], 21.8 µM. In addition, the TGI is 35.4 µM in [1]; greater than 100 µM in assay [2]; 44.7 µM in assay [3]; 49.1 µM in assay [4]; 62.2 µM in assay [5]; 87.9 µM in assay [6]. Further, the TGI is 68.4 µM in assay [7], 53.8 µM in assay [8], 55.1 µM in [9] and greater than 100 µM in [10].

Turning to `CCOC(=O)/C=C/C(C(=O)/C=C/c1ccc(O)c(OC)c1)=C(O)\C=C\c1ccc(O)c(OC)c1`, the GI50 was 0.903 µM in assay [1]; 8.07 µM in assay [2]; 5.17 µM in assay [3]; 2.13 µM in [4]; 4.51 µM in assay [5]; 3.17 µM in [6]. Also, the GI50 was 2.6 µM in assay [7], 3.6 µM in [8], 7.52 µM in assay [9] and 11 µM in [10]. In addition, the TGI in assay [1] was 3.12 µM; in [2], 25.4 µM; in assay [3], 26.2 µM; in assay [4], 6.94 µM; in [5] it was 36.4 µM; in assay [6], 7.56 µM. Further, the TGI in assay [7] was 7.23 µM; in [8], 24.7 µM; in assay [9], 67.5 µM; in assay [10] it was greater than 100 µM.

Take `COc1cc(/C=C2\CN(C)C/C(=C\c3cc(CN4CCCCC4)c(O)c(OC)c3)C2=O)cc(CN2CCCCC2)c1O`: the GI50 was 2.34 µM in assay [1]; 7.71 µM in [2]; 3.53 µM in assay [3]; 6.24 µM in [4]; 2.68 µM in assay [5]; 2.29 µM in assay [6]. For the same molecule, the GI50 is 3.04 µM in [7], 3.27 µM in assay [8], 2.93 µM in assay [9] and 3.15 µM in assay [10]. Also, the TGI in [1] was 6.19 µM; in assay [2], 37.2 µM; in assay [3], 13.2 µM; in [4] it was greater than 100 µM; in [5] it was 11.9 µM; in [6] it was 5.81 µM. Moreover, the TGI is 9.32 µM in [7], 12.6 µM in [8], 13.9 µM in assay [9] and 9.37 µM in assay [10].

As for `COc1ccc2nc3cc(Cl)ccc3c(NCCCNCCC(C)O)c2c1` (stereo not given), the GI50 was 0.356 µM in assay [1]; 0.465 µM in [2]; 0.704 µM in [3]; 2.46 µM in [4]; 0.196 µM in [5]; 0.331 µM in assay [6]. The GI50 in [7] is 0.575 µM; in assay [8], 0.234 µM; in assay [9], 0.351 µM; in [10], 0.156 µM. For the same molecule, the TGI in assay [1] was found to be 1.46 µM; in assay [2], 2.62 µM; in assay [3], 2.25 µM; in [4] it was 15.5 µM; in assay [5], 0.75 µM; in [6], 2.46 µM. Moreover, the TGI came out at 3.09 µM in assay [7], 2.25 µM in assay [8], 1.72 µM in assay [9] and 1.74 µM in assay [10].

As for `O=C(Cc1cccc(OC(F)(F)F)c1)Nc1ccc(CCCCc2nnc(NC(=O)Cc3ccccn3)s2)nn1`, the GI50 was 25.9 µM in assay [1]; 11.6 µM in assay [2]; 19 µM in [3]; greater than 100 µM in assay [4]; 12.2 µM in assay [5]; greater than 100 µM in assay [6]. Further, the GI50 was 0.452 µM in assay [7], 40.4 µM in assay [8], 16.5 µM in assay [9] and 33.7 µM in assay [10]. Also, the TGI in assay [1] was greater than 100 µM; in assay [2], 25.1 µM; in assay [3] it was 47.5 µM; in [4], greater than 100 µM; in assay [5], 40.1 µM; in assay [6], greater than 100 µM. In addition, the TGI in assay [7] is 32.3 µM; in assay [8] it was greater than 100 µM; in [9] it was greater than 100 µM; in [10] it was greater than 100 µM.

The values are drawn from PubChem BioAssay (NCI).
